The structures appear in SMILES notation.

Common to all, as to test: Isothermal titration calorimetry at 25 °C in 20 mM HEPES, pH 8.0, 2 mM CaCl2, 50 uM protein in the cell titrated with oligosaccharide, single-site non-linear regression.
Common to all, as to format: binding

For one experiment, the target named is T1, XG-34 (Rhodothermus marinus, UniProt Q7WTN6, E282H/E322D/F286L/F320H/Q321D/W279Y/Y359F).
T1 construct: CBM4-2 domain scaffold, hexahistidine tag (pET22b, E. coli BL21 (DE3))
To be noted: read-out: KA (10^3 M^-1). The procedure: (§1) Isothermal titration calorimetry (ITC) measurements were performed at 25°C following standard procedures using a Microcal Omega titration calorimeter (Northampton, MA, USA). XXXG and XLLG (Figure 1) were prepared as previously described. Prior to analysis, the CBM were extensively dialyzed against 20 mM HEPES, pH 8.0 containing 2 mM CaCl2. The same buffer was used to dissolve tamarind seed xyloglucan, XXXG, XLLG and galactose to minimize heats of dilution. 50 μM protein samples were stirred at 300 rpm in a 1.4331 ml reaction cell. Ligands were injected as a single 1 μl aliquot followed by 27 successive 10 μl aliquots at 300 s intervals (2 mM, 7.5 mM or 10 mM XXXG; 1 mM or 5 mM XLLG; 2.5% or 5% w/v xyloglucan; 10 mM galactose). Integrated heat effects were analyzed by non-linear regression using a single-site binding model.

Another experiment has as its system T2, XG-34/1-X.
T2 construct: CBM4-2 domain scaffold, hexahistidine tag (pET22b, E. coli BL21 (DE3))
The protocol: as §1

A further experiment has as its system T3, XG-34/2-VI.
T3 construct: CBM4-2 domain scaffold, hexahistidine tag (pET22b, E. coli BL21 (DE3))
The protocol: as §1

As for `OC[C@H]1O[C@@H](O[C@H]2[C@@H](OC[C@H]3O[C@@H](O[C@H]4[C@H](O)[C@@H](O)[C@H](O[C@H]5[C@H](O)[C@@H](O)C(O)O[C@@H]5CO)O[C@@H]4CO[C@H]4OC[C@@H](O)[C@H](O)[C@H]4O[C@@H]4O[C@H](CO)[C@H](O)[C@H](O)[C@H]4O)[C@H](O)[C@@H](O)[C@@H]3O[C@@H]3O[C@H](CO[C@H]4OC[C@@H](O)[C@H](O)[C@H]4O)[C@@H](O)[C@H](O)[C@H]3O)OC[C@@H](O)[C@@H]2O)[C@H](O)[C@@H](O)[C@H]1O` (stereo partly shown) [XLLG, xyloglucan oligosaccharide XLLG (galactose-containing nonasaccharide, Gal2Xyl3Glc4)], the Kd on XG-34 is approximately 1000 µM.
Consider `OC[C@H]1OC(O)[C@H](O)[C@@H](O)[C@@H]1O[C@@H]1O[C@H](CO[C@H]2OC[C@@H](O)[C@H](O)[C@H]2O)[C@@H](O[C@@H]2O[C@H](CO[C@H]3OC[C@@H](O)[C@H](O)[C@H]3O)[C@@H](O[C@@H]3O[C@H](CO[C@H]4OC[C@@H](O)[C@H](O)[C@H]4O)[C@@H](O)[C@H](O)[C@H]3O)[C@H](O)[C@H]2O)[C@H](O)[C@H]1O` (stereo partly shown) [XXXG, xyloglucan oligosaccharide XXXG (non-galactosylated heptasaccharide, Xyl3Glc4)], for which the Kd on XG-34 was approximately 1000 µM. Moreover, the “KA (10^3 M^-1)” value with XG-34/1-X and in the experiment on XG-34/2-VI was “~ ≈ 1 M-1” in each case.

For the origin of these results see paper PMC2783032, “Affinity maturation generates greatly improved xyloglucan-specific carbohydrate binding modules” (BMC Biotechnology, 2009).
